Data on one compound can be found in patent US9492450B2, “Inhibition of dynamin related protein 1 to promote cell death” (University of Pittsburgh—of the Commonwealth System of …, priority 2011, dated 2016).

SMILES strings stand for the structures.

For one series, the system named is Drp1. To be noted: as said in Cassidy-Stone et al., Dev Cell 14:193-204; cited from earlier work.
The nature of series [1]: Solubility of mdivi-1 with carrier compounds. The format is physicochemical. The conditions noted are these: 1 mM mdivi-1.
The test system of series [2] is MDA-MB-231 cells. In words: Cisplatin cytotoxicity under Drp1 inhibition (subG1, LIVE/DEAD kit, caspase Western blot). It is filed as cell-based, human. The method, then: To test the effect of Drp-1 inhibition on the effectiveness of cisplatin, in a first series of experiments, MDA-MB-231 cells were transfected with control or Drp1 siRNA, and 48 hours later were then treated with 40 μM of cisplatin for a 24 hour period. The effect of different concentrations of cisplatin on the Drp1 knockdown cells is shown in FIG. 13A, where the subG1 portion in the cell cycle profile indicates cytotoxicity. In a second series of experiments, a LIVE/DEAD Viability/Cytotoxicity kit (Invitrogen) was used to evaluate the effect of inhibition of Drp1 by mdivi-1 on cisplatin cytotoxicity. In this test, the percentage of lice and dead cells are determined simultaneously with two probes, calcein AM and ethidium homodimer (EthD-1). […] EthD-1 is excluded by the intact plasma membrane of live cells but is able to enter cells with damaged membranes and undergo a 40-fold enhancement of red fluorescence upon binding to nucleic acids. […] Calcein AM and EthD-1 were added to the cell suspension at final concentrations of 0.1 μM and 8 μM, respectively, Fluorescence intensity was analyzed on a CyAn ADP Analyzer (Beckman Coulter, Brea, Calif.) and the results were analyzed using Summit software. The live-cell population that was positively stained with calcein was detected in the bottom right region and indicated with an arrow. […]

Series [3] relates to MDA-MB-231 cells. As to the kind of experiment: CyQUANT growth assay, continuous exposure. The format is cell-based, human. To be noted: various concentrations. As for the experimental part: To test the effect of Drp1 inhibition on tumor cells, MDA-MB-231 cells were plated in black 96-well plates and treated with various concentrations of mdivi-1. Cell numbers were measured by CyQUANT assay every day.

Another series relates to H1299 cells. In words: Mitochondrial function: ATP, OCR, ECAR, TMRM membrane potential. It is filed as cell-based, human. To be noted: 50 μM, 4 h. As for the experimental part:
FIG. 25A-I. Mdivi-1 causes mitochondrial dysfunction and its combination with cisplatin induces mitochondrial swelling that triggers Bax/Bak-independent MOMP. (A) MDA-MB-231 cells and H1299 cells were treated as indicated for 4 h and subjected to ATP determination. […] (B, C) OCR and ECAR were measured after 4 h treatment of H1299 cells with agents alone or the combination (C/M). (D) H1299 cells were treated as indicated for 4 h. Mitochondrial membrane potential was determined with TMRM. (E) Bax/Bak double knockout MEF cells were treated with DMSO or the combination, with or without the presence of 10 μM FCCP for 2 h. Mitochondrial membrane potential was measured as in D. (F) Bax/Bak double knockout MEF cells were treated as indicated for 2 h, ROS generation was determined with DCF-DA. (G) Bax/Bak double knockout MEF cells were pre-incubated with 5 μM MitoSox for 30 min, and then treated as indicated for 2 h followed by flow cytometry. […] Mitochondrial morphology was analyzed by confocal microscopy. […] Mitochondrial ultrastructure was analyzed by electron microscopy. […]
Total cellular ATP content was determined using a luminescent ATP detection kit, ATPlite (PerkinElmer Life Sciences, Boston, Mass.), according to the manufacturer's instruction. The luminescence intensity was measured using a microplate reader, Synergy 2 (BioTek instruments, Winooski, Vt.). […]

For `COc1cc(-n2c(=S)[nH]c3ccccc3c2=O)c(Cl)cc1Cl` [mdivi-1], in the series on Drp1, the “efficacy in inhibiting Drp1 relative to mdivi-1” value is reported as “full efficacy”. Besides, the “solubility of mdivi-1” value in series [1] (40% 2-Hydroxypropyl-β-cyclodextrin/PBS) is “improve the solubility”; in series [1] (human serum albumin as vehicle, 15% HSA in 0.85% sodium chloride) it was “improve the solubility”. Also, the “number of dead cells after cisplatin, coadministered with mdivi-1” value with MDA-MB-231 cells [2] (50 μM mdivi-1, 12 hours, LIVE/DEAD kit) is listed as “increased”. Besides, the “number of apoptotic cells after cisplatin, coadministered with mdivi-1” value in the series with MDA-MB-231 cells [2] (caspase activation by Western Blot) is “increased”. For the same compound, the growth of cells result with MDA-MB-231 cells [3] is “inhibited the growth of MDA-MB-231 breast cancer cells in a dose-dependent manner”. Also, the “extracellular acidification rate (ECAR)” value with H1299 cells is reported as “enhanced the extracellular acidification rate”. The “oxygen consumption rate (OCR) / mitochondrial respiration” value in the series with H1299 cells is “suppressed mitochondrial respiration”.
